Source: US9840494B2, “Quinazoline derivative” (Tianjin Hemay Oncology Pharmaceutical Co., Ltd., priority 2013, dated 2017)
Structures can show the parent of a compound that is named as a salt.

Legend:
[1] = Li D et al., Oncogene 2008; cited from earlier work
[2] = FDA application records; cited from earlier work
[3] = Preliminary pharmacokinetic studies; type: in vivo
[4] = MTD assay, single administration to mice; type: in vivo; details: ICR male mice, tail intravenous administration, 14 days
Description: MTD Assay for a Single […] to Mice
1. Experimental Animals: ICR male mice, weighing 19-22 g, were purchased from Beijing Vital River Laboratory Animal Technology Co., Ltd., Animal License No. SCXK (Beijing) 2007-0001
2. Experimental Scheme: 21 mice were divided into nine groups: groups I, IV and VI referred to one mouse per group, groups II, V and IIX referred to four mice per group, and group III, VI and IX referred to two mice per group. Compound 4, compound 2 and compound 12 were dissolved in water for injection. Groups I-III were subjected to tail intravenous administration of compound 4 (N-[4-(3-chloro-4-fluorophenylamino)-7-(2-methoxyethoxy)quinazolin-6yl]-2-[piperidin-4-ylidene]acetamide dihydrochloride) at doses of 100 mg/kg, 150 mg/kg, and 200 mg/kg, respectively. The animal response and the weight change were observed after administration, and these animals were sacrificed after 14 days for anatomical observation. Groups IV-VI were subjected to tail intravenous administration of compound 2 (N-[4-(3-chloro-4-fluorophenylamino)-7-(2-methoxyethoxy)quinazolin-6yl]-2-[1-(2-methoxyethyl)piperidin-4-ylidene]acetamide dihydrochloride) at doses of 100 mg/kg, 150 mg/kg, and 200 mg/kg, respectively. The animal response and the weight change were observed after administration, and these animals were sacrificed after 14 days for anatomical observation. Groups VII-IX were subjected to tail intravenous administration of compound 12 (N-[4-(3-ethynylphenylamino-7-(2-ethoxy)quinazolin-6yl]-2-[1-methylpiperidin-4-ylidene]acetamide dihydrochloride) at doses of 100 mg/kg, 150 mg/kg, and 200 mg/kg, respectively. The animal response and the weight change were observed after administration, and these animals were sacrificed after 14 days for anatomical observation.

Row | Structure (SMILES) | MTD [1] [mg/kg] | bioavailability [2] [%] | distribution (gathering in the gastrointestinal tract) [3] | oral bioavailability [3] | Mortality ([4]; 100 mg/kg, 1 animal) [%] | Number of Deaths ([4]; 100 mg/kg, 1 animal) | Mortality ([4]; 150 mg/kg, 4 animals) [%] | Number of Deaths ([4]; 150 mg/kg, 4 animals) | Mortality ([4]; 200 mg/kg, 2 animals) [%] | Number of Deaths ([4]; 200 mg/kg, 2 animals)
1 | CN(C)C/C=C/C(=O)Nc1cc2c(Nc3ccc(F)c(Cl)c3)ncnc2cc1O[C@H]1CCOC1 [Afatinib] | 30 | 11.175 | – | – | – | – | – | – | – | –
2 | COCCOc1cc2ncnc(Nc3ccc(F)c(Cl)c3)c2cc1NC(=O)C=C1CCNCC1 [Compound 4, N-[4-(3-chloro-4-fluorophenylamino)-7-(2-methoxyethoxy)quinazolin-6yl]-2-[piperidin-4-ylidene]acetamide dihydrochloride] | – | – | gathered in the gastrointestinal tract | very low | 0 | 0 | 0 | 0 | 50 | 1
3 | C#Cc1cccc(Nc2ncnc3cc(OCC)c(NC(=O)C=C4CCN(C)CC4)cc23)c1 [Compound 12, N-[4-(3-ethynylphenylamino-7-(2-ethoxy)quinazolin-6-yl]-2-[1-methylpiperidin-4-ylidene]acetamidedihydrochloride] | – | – | gathered in the gastrointestinal tract | very low | 0 | 0 | 50 | 2 | 100 | 2
